Results reported in EP0818443B1, “Mercaptoketones and mercaptoalcohols, a process for their preparation and their use as inhibitors of matrix metalloproteinases” (American Cyanamid Company, priority 1996, dated 1998).

Tests used:
[1] = molecular target: T1, human recombinant fibroblast collagenase (Homo sapiens, UniProt P03956); assay: Collagenase inhibition in vitro (fluorogenic peptide substrate); assay type: biochemical
T1 construct: human recombinant fibroblast collagenase (truncated, mw 18,828, WAR, Radnor)
T1 sequence (P03956 100-269 limits assumed): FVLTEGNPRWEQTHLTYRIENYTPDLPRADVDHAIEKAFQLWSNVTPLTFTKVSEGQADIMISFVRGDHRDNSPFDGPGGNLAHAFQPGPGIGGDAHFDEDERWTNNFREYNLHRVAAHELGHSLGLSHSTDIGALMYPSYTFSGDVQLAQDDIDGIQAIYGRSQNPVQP
Description: The assay is based on the cleavage of a peptide substrate ((Dnp-Pro-Cha-Gly-Cys(Me)-His-Ala-Lys(NMa)-NH2), Peptide International, Inc.) by collagenase releasing the fluorescent NMa group which is quantitated on the fluorometer. Dnp quenches the NMa fluorescence in the intact substrate. The assay is run in HCBC assay buffer (50mM HEPES, pH 7.0, 5mM Ca^+2, 0.02% Brij, 0.5% cysteine), with human recombinant fibroblast collagenase (truncated, mw 18,828, WAR, Radnor). Substrate is dissolved in methanol and stored frozen in 1mM aliquots. Collagenase is stored frozen in buffer in 25 µM aliquots. For the assay, substrate is dissolved in HCBC buffer to a final concentration of 10 µM and collagenase to a final concentration of 5nM. Compounds are dissolved in methanol, DMSO, or HCBC. The methanol and DMSO are diluted in HCBC to <1%. Compounds are added to the 96 well plate containing enzyme and the reaction is started by the addition of substrate.
The reaction is read (excitation 340 nm, emission 444nm) for 10 minutes and the increase in fluorescence over time is plotted as a linear line. The slope of the line is calculated and represents the reaction rate.
The linearity of the reaction rate is confirmed (r^2>0.85). The mean of the control rate is calculated and compared for statistical significance (p<0.05) with drug-treated rates using Dunnett's multiple comparison test. Dose-response relationships can be generated using multiple doses of drug and IC50 values with 95% CI are estimated using linear regression (IPRED, HTB) (Bickett, D. M. et al., A High Throughput Fluorogenic Substrate For Interstitial Collagenase (MMP-1) and Gelatinase (MMP-9), Anal. Biochem. 212, 58-64 (1993)).

[2] = molecular target: T2, human neutrophil gelatinase B (Homo sapiens, UniProt P14780); assay: Gelatinase inhibition in vitro (thiopeptide substrate, DTNB); assay type: biochemical
T2 construct: human neutrophil gelatinase B; from tissue; host or cells: human neutrophils
T2 sequence (P14780 94-707): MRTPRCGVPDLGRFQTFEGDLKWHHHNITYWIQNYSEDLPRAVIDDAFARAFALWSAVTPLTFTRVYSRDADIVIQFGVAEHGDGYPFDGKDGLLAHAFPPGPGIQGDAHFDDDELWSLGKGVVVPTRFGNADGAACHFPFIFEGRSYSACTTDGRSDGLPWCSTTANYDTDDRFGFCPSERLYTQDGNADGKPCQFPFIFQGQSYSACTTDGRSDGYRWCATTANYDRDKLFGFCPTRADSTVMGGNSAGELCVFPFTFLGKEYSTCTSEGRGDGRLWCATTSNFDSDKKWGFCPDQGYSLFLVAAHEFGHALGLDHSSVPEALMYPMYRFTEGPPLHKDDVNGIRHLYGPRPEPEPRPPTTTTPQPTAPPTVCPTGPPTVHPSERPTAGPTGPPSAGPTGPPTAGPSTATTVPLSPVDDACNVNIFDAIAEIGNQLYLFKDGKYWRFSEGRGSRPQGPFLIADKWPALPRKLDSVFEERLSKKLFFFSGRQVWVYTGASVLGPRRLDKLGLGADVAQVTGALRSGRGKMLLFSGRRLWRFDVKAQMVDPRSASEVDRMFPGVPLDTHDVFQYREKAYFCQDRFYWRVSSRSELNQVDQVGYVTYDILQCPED
Description: The increase in OD405 is plotted and the slope of the line is calculated which represents the reaction rate.
The mean of the control rate is calculated and compared for statistical significance (p<0.05) with drug-treated rates using Dunnett's multiple comparison test.

gelatinase = gelatinase (Homo sapiens, UniProt P14780); assay: In vivo MMP inhibition (enzyme in implanted dialysis tubing); set-up: species or system rat (Sprague-Dawley) or mouse (CD-1)
Sequence of gelatinase (P14780 94-707): as above
Description: A 2 cm piece of dialysis tubing (molecular weight cut-off 12-14,000, 10 mm flat width) containing matrix metalloproteinase enzyme (stromelysin, collagenase or gelatinase in 0.5 mL of buffer) is implanted either ip or sc (in the back) of a rat (Sprague-Dawley, 150-200g) or mouse (CD-1, 25-50g) under anesthesia. Drugs are administered PO, IP, SC or IV through a canula in the jugular vein. Drugs are administered in a dose volume of 0.1 to 0.25 mL/animal. Contents of the dialysis tubing is collected and enzyme activity assayed.
Enzyme reaction rates for each dialysis tube are calculated. Tubes from at least 3 different animals are used to calculate the mean± sem. Statistical significance (p<0.05) of vehicle-treated animals versus drug-treated animals is determined by analysis of variance. (Agents and Actions 21: 331, 1987)

[3] = molecular target: T3, human recombinant stromelysin (Homo sapiens, UniProt P08254); assay: Stromelysin inhibition in vitro (thiopeptide substrate, DTNB); assay type: biochemical
T3 construct: human recombinant stromelysin (truncated, Affymax); purchased Affymax
T3 sequence (P08254 100-272 limits assumed): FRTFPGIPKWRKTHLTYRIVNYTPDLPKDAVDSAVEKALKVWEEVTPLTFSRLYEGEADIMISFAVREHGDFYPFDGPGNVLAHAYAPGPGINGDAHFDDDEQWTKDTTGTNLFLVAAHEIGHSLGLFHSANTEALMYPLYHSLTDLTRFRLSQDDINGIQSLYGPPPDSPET
Description: The assay is based on the cleavage of the thiopeptide substrate ((Ac-Pro-Leu-Gly(2-mercapto-4-methylpentanoyl)Leu-Gly-OEt), Bachem Bioscience) by the enzyme stromelysin, releasing the substrate product which forms a colorimetric reaction with DTNB ((5,5'-dithiobis(2-nitrobenzoic acid)). The thiopeptide substrate is made up as a 20mM stock in 100% DMSO and stored frozen while the DTNB stock is dissolved in 100% DMSO and stored as a 100mM stock at room temperature. Both the substrate and DTNB are diluted to 1mM with assay buffer (50mM HEPES, pH 7.0, 5 mM CaCl2) before use. The stock of human recombinant stromelysin (truncated, Affymax) is diluted with assay buffer to a final concentration of 12.5 nM in the reaction.
The enzyme, DTNB, and substrate (10µM final concentration) with/without inhibitor (total reaction volume of 200µL) is added to a 96 well plate and then the increase in color is monitored spectrophotometrically for 5 minutes at 405 nanometers (nm) on a plate reader. The increase in OD405 is plotted and the slope of the line is calculated which represents the reaction rate.
The mean of the control rate is calculated and compared for statistical significance (p<0.05) with drug-treated rates using Dunnett's multiple comparison test. Dose-response relationships can be generated using multiple doses of drug and IC50 values with 95% Cl are estimated using linear regression (IPRED, HTB) (Weingarten and Feder, Spectrophometric Assay For Vertebrate Collagenase, Anal. Biochem 147, 437-440 (1985)).

MMP stromelysin = MMP stromelysin (Homo sapiens, UniProt P08254); conditions: WO 9407481; cited from earlier work
Sequence of MMP stromelysin (P08254 100-477): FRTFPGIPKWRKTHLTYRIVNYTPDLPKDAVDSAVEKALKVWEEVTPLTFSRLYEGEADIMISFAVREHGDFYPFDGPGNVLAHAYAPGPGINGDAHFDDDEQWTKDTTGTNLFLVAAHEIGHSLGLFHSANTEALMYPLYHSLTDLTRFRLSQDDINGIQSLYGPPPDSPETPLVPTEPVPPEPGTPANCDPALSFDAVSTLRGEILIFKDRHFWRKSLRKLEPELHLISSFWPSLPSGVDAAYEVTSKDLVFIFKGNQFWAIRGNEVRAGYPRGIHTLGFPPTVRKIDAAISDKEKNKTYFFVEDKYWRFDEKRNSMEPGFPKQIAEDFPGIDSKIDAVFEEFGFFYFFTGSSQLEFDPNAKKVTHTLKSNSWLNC

Compound | IC50 [1] | in vivo % gelatinase inhibition (gelatinase; 50mpk (milligrams/kilogram)) | further results
CNC(=O)[C@@H](NC(=O)[C@H](CC(C)C)C[C@H](O)CS)C(C)(C)C [Example 40, (2R,4S)-4-Hydroxy-2-isobutyl-5-mercaptopentanoic acid ((1S)-2,2-dimethyl-1-methylcarbamoylpropyl)amide] | 0.041 µM | 84.8/50mpk % | IC50 [2]: 0.019 µM
CNC(=O)[C@@H](NC(=O)[C@H](CC(C)C)C[C@@H](O)CSC(c1ccccc1)(c1ccccc1)c1ccccc1)C(C)(C)C [Example 35, (2R,4R)-4-Hydroxy-2-isobutyl-5-tritylsulfanylpentanoic acid ((1S)-2,2-dimethyl-1-methylcarbamoylpropyl)amide] |  | 0.44/50mpk % | inhibition at 1 µM ([1]; @1µM): 72%; inhibition at 1 µM [3]: 38%
CNC(=O)[C@@H](NC(=O)[C@@H](CC(=O)CS)CC(C)C)C(C)(C)C [Example 44, (2R)-2-Isobutyl-5-mercapto-4-oxopentanoic acid ((1S)-2,2-dimethyl-1-methylcarbamoylpropyl)amide] | 0.038 µM |  | inhibition at 1 µM [3]: 58%; in vivo % gelatinase inhibition (gelatinase; 60mpk (milligrams/kilogram)): 4.8/60mpk %
CCCCCCC[C@H](C[C@H](O)CS)C(=O)N[C@H](C(=O)NC)C(C)(C)C [Example 38, (2R)-2-((2S)-2-Hydroxy-3-mercaptopropyl)nonanoic acid ((1S)-2,2-dimethyl-1-methylcarbamoylpropyl)amide] | 0.03 µM | 22.2/50mpk % | 
CNC(=O)[C@@H](NC(=O)[C@H](CC(C)C)C[C@@H](O)CS)C(C)(C)C [Example 39, (2R,4R)-4-Hydroxy-2-isobutyl-5-mercaptopentanoic acid ((1S)-2,2-dimethyl-1-methylcarbamoylpropyl)amide] | 0.228 µM | 20.4/50 mpk % | IC50 [2]: 0.106 µM
CC(C)C[C@H](NC(=O)[C@@H](CS)CCc1ccccc1)C(=O)Nc1ccccc1 |  |  | inhibitor of the MMP stromelysin (MMP stromelysin): moderate
CCCCCCC[C@H](CC(=O)CS)C(=O)N[C@H](C(=O)NC)C(C)(C)C [Example 43, (2R)-2-(3-Mercapto-2-oxopropyl)nonanoic acid ((1S)-2,2-dimethyl-1-methylcarbamoylpropyl)amide] | 0.03 µM | 0.73/50mpk* % | IC50 [3]: 0.028 µM
